{"source": "patent US20250032516A1", "about": "“COMPOSITIONS AND METHODS FOR TREATING EPILEPSY” (POVIVA CORP, priority 2023, published 2025)", "origin": "cited, not measured here", "conditions": "children with Dravet syndrome", "note": "Like-named read-outs stand apart in the source and are kept apart here.", "data": [{"smiles": "C=C(C)[C@@H]1CCC(C)=C[C@H]1c1c(O)cc(CCCCC)cc1O", "note": "[Cannabidiol, 2-[(1R,6R)-6-Isopropenyl-3-methylcyclohex-2-en-1-yl]-5-pentylbenzene-1,3-diol]", "values": [{"measurement": "Plasma concentration on Day 1 at starting CBD dose, 5 hours, Mean (SD)", "setting": "5 mg/kg/day group (N = 10)", "value": "10.0 (5.74) ng/mL"}, {"measurement": "Plasma concentration on Day 1 at starting CBD dose, […], Mean (SD)", "setting": "5 mg/kg/day group (N = 10)", "value": "37.6 (53.7) ng/mL"}, {"measurement": "Plasma concentration on Day 1 at starting CBD dose, 5 hours, Mean (SD)", "setting": "10 mg/kg/day group (N = 8)", "value": "11.3 (11.7) ng/mL"}, {"measurement": "Plasma concentration on Day 1 at starting CBD dose, […], Mean (SD)", "setting": "10 mg/kg/day group (N = 8)", "value": "34.4 (32.1) ng/mL"}, {"measurement": "Plasma concentration on Day 1 at starting CBD dose, 5 hours, Mean (SD)", "setting": "20 mg/kg/day group (N = 9)", "value": "25.3 (42.4) ng/mL"}, {"measurement": "Plasma concentration on Day 1 at starting CBD dose, […], Mean (SD)", "setting": "20 mg/kg/day group (N = 9)", "value": "29.3 (28.5) ng/mL"}]}]}
